In ChEMBL document CHEMBL3414440, “Pure enantiomers of benzoylamino-tranylcypromine: LSD1 inhibition, gene modulation in human leukemia cells and effects on clonogenic potential of murine promyelocytic blasts” (Eur J Med Chem, 2015):

Experiments:
[1] = target: T1, Amine oxidase [flavin-containing] A (Homo sapiens, UniProt P21397)
T1 sequence (P21397 whole entry): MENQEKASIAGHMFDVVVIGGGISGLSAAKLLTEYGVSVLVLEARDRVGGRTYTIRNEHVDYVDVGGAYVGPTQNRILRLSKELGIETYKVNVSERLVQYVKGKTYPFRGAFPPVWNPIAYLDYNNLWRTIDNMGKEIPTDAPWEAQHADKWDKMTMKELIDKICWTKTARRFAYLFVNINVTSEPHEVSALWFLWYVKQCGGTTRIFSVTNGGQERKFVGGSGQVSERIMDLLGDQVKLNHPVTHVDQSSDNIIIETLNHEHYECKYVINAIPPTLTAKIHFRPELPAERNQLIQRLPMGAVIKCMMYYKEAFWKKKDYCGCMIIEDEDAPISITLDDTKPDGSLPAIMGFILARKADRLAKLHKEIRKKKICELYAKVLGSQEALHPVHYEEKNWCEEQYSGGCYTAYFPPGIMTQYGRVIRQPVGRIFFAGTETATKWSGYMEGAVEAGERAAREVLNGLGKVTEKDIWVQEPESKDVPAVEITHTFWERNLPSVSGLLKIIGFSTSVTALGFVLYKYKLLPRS
Description: Inhibition of human recombinant MAOA expressed in Pichia pastoris incubated for 15 mins prior to substrate addition measured after 30 mins by luminescence assay

[2] = target: T2, Amine oxidase [flavin-containing] B (Homo sapiens, UniProt P27338)
T2 sequence (P27338 whole entry): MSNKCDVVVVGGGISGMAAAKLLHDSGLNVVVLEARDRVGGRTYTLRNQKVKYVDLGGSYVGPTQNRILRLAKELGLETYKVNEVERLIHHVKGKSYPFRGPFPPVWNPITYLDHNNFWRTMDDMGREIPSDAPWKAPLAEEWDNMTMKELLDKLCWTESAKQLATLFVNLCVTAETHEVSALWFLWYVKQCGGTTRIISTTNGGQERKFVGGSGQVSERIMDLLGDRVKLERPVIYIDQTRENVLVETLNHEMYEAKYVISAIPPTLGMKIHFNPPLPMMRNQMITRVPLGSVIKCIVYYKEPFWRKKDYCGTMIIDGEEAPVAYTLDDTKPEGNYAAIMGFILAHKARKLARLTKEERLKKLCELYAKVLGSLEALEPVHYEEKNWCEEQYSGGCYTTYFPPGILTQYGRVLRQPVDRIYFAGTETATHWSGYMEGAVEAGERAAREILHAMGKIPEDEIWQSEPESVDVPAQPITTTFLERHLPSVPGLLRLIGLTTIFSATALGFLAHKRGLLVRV
Description: Inhibition of human recombinant MAOB expressed in Pichia pastoris incubated for 15 mins prior to substrate addition measured after 30 mins by luminescence assay

cells = conditions: Mus musculus, Leukemia cell, read-out: INH
Description: Inhibition of colony formation in mouse acute myeloid Leukemia cell assessed as colony forming unit at 0.25 uM after 7 days relative to control

[3] = target: T3, MAO-B (amine oxidase [flavin-containing] B) (Homo sapiens, UniProt P27338); assay: Inhibition of human recombinant MAOB expressed in Pichia pastoris at 100 uM incubated for 15 mins prior to substrate addition measured after 30 mins by luminescence assay
T3 sequence (P27338 whole entry): T2 sequence (P27338 whole entry)

| Structure (SMILES) | IC50 [1] [nM] | IC50 [2] [nM] | inhibition at […] (cells) [%] | inhibition at 0.5 h, 100 µM [3] [%] |
| --- | --- | --- | --- | --- |
| N[C@@H]1C[C@H]1c1cccc(NC(=O)c2ccccc2)c1 | 1540 | 84700 |  |  |
| N[C@@H]1C[C@@H]1c1ccc(NC(=O)c2ccccc2)cc1 |  |  | 72 |  |
| N[C@@H]1C[C@H]1c1ccc(NC(=O)c2ccccc2)cc1 |  |  | 83.4 |  |
| N[C@@H]1C[C@@H]1c1cccc(NC(=O)c2ccccc2)c1 | 650 |  |  | 34 |
| N[C@H]1C[C@@H]1c1cccc(NC(=O)c2ccccc2)c1 | 1370 |  |  | 29 |
| N[C@H]1C[C@@H]1c1ccc(NC(=O)c2ccccc2)cc1 |  |  | 64 |  |
| N[C@H]1C[C@H]1c1ccc(NC(=O)c2ccccc2)cc1 |  |  | 83.8 |  |
| N[C@H]1C[C@H]1c1cccc(NC(=O)c2ccccc2)c1 | 70 | 80100 |  |  |
